Measurements from US20150202313A1, “Macromolecular Prodrugs for Hard Tissue and Methods of Use Thereof” (New York Society for The Ruptured and Crippled Maintaining …, priority 2012, published 2015).

Columns and labels:
[1] = system: open fracture mouse model (femoral shaft fracture); assay: Therapeutic efficacy in open fracture mouse model, Safranin O histology of callus; format: in vivo, Swiss Webster mice; conditions: 21 days post fracture
Experimental: (§1) Ten-week-old male Swiss Webster mice were purchased from Charles River Laboratories, and maintained under standard housing conditions. The animals were acclimated for at least 1 week before any experimental procedure. Under general anesthesia with isoflurane, the hips, thighs, and knees on the right side of the animal were prepared with Betadine (povidone-iodine) solution. A 1.0 cm right medial parapatellar incision was made on the right knee. The patella was dislocated laterally to expose the femoral condyles. A 25-guage needle was introduced into the canal and driven in a retrograde intramedullary fashion to the level of the greater trochanter. Distally, the needle was cut flush with the cortex (length was about 1.4 cm) so as not to interfere with motion of the knee. Controlled unilateral transverse femoral shaft fractures were created with a #15 blade. […] Postoperatively, mice were placed on clean paper towels in their cages (to avoid inhalation/aspiration of the bedding material) and monitored until the animals were fully awake. The mice were monitored for signs of pain with analgesia and antibiotics given according to established protocol. […]
After micro-CT analysis, the fractured femurs were decalcified using 14% EDTA at room temperature for 30 days. […] The specimens were then paraffin embedded, sectioned (5 μm thickness), stained with Safranin 0 and histologically evaluated.

[2] = Weight loss side effect during treatment; conditions: in vivo
Source text: Eighteen 10-week-old male Swiss Webster mice were osteotomized and randomly assigned into three groups (6 mice/group). […] The overall SIM doses given to the SIMA and SIM/SIM-mPEG were equivalent. All mice were euthanized 21 days post osteotomy.

[3] = system: open fracture mouse model (femoral shaft fracture); assay: Therapeutic efficacy in open fracture mouse model, micro-CT analysis of callus; format: in vivo, Swiss Webster mice
Experimental: as §1, with “knee.” for “knee. Controlled unilateral transverse femoral shaft fractures were created with a #15 blade.”
For the quantitative analysis, we specifically focused on the site of fracture callus formation. […] The following parameters were measured and calculated: callus volume (Cl.V), callus thickness (Cl.Th), callus separation (Cl.Sp) and the ratio of callus surface to volume (Cl.S/Cl.V). […]

## CCC(C)(C)C(=O)O[C@H]1C[C@@H](C)C=C2C=C[C@H](C)[C@H](CC[C@@H](O)C[C@@H](O)CC(=O)O)[C@H]21 [SIMA, simvastatin acid]
[1]
  histological features of callus sections (Safranin O): intermediate stage between CON and SIM/SIM-mPEG groups
[2]
  side effect of weight loss: weight loss observed
[3]; 21 days post osteotomy, SIMA equiv. SIM 6 mg/kg/day i.p., micelles equiv. SIM 42 mg/kg/wk i.v.
  quantitative morphometric indices of callus (micro-CT), comparison with CON: No statistical significance
[3]; 21 days post-fracture
  mineralization of the fracture callus (micro-CT images): less mineralized callus formation at the fracture site
